Test results published in patent US6846913B1, “Crude extract from Viscum album coloratum, and proteins and lectins isolated therefrom” (Mistle Biotech Co., Ltd., priority 1999, dated 2005).

test system: hemagglutination of KML-IIU and KML-IIL; design: species or system Korean mistletoe; settings: sugars stepwise diluted from 100 mM

Row | SMILES | Minimal Conc. (mM) necessary to inhibit the hemagglutination [mM]
1 | CC(=O)N[C@H]1C(O)O[C@H](CO)[C@H](O)[C@@H]1O (stereo partly shown) [N-Acetylgalactosamine] | 3
2 | OC[C@H]1O[C@@H](O[C@H]2[C@H](O)[C@@H](O)C(O)O[C@@H]2CO)[C@H](O)[C@@H](O)[C@H]1O (stereo partly shown) [Lactose] | 3
3 | CC(=O)N[C@H]1C(O)O[C@H](CO)[C@@H](O)[C@@H]1O (stereo partly shown) [N-Acetylglucosamine] | >100
4 | O=C[C@H](O)[C@@H](O)[C@@H](O)[C@H](O)CO [Galactose] | 6
